Experimental data as given in paper PMC4278837, “A Cyclic Peptidic Serine Protease Inhibitor: Increasing Affinity by Increasing Peptide Flexibility” (PLoS ONE, 2014).
Square brackets hold non-standard residues; d marks the D form. Peptide text beside a SMILES is read from it. * marks the point of attachment. pNA = O=[N+]([O-])c1ccc(N*)cc1; pGlu = O=C1CC[C@@H](C(=O)O)N1

Key:
Conditions in all cases: 37°C, HBS with 0.1% BSA
muPA wt = target: T1, muPA wt (Mus musculus, UniProt P06869); assay: KM for S-2444 hydrolysis by muPA wt; format: biochemical, murine
T1 construct: To ensure that the uPAs purified from the conditioned media were completely in the two-chain form, they were treated with plasmin; hexa-His (C); made in house; host or cells: HEK293 6E suspension cells
T1 sequence (P06869 180-433 limits assumed): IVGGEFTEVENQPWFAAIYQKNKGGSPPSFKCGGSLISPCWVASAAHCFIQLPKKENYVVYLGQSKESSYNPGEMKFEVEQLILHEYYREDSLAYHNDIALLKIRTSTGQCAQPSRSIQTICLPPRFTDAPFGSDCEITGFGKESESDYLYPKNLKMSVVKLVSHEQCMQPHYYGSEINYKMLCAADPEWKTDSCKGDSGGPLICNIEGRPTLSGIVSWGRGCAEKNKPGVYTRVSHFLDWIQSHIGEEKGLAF
T1 sequence (P06869 21-178 partner limits assumed): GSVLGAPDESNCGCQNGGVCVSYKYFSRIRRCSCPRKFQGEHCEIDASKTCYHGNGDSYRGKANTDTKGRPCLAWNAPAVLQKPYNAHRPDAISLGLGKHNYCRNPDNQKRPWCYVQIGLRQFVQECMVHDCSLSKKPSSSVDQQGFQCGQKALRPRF
Experimental: (§1) Determination of K M values
(§2) To determine the K M values for hydrolysis of S-2444 (pyro-Glu-Gly-Arg-p-nitroanilide) by the different uPA variants used in the present study, a 200 µL 2-fold dilution series of the substrate (4 - 0 mM for huPA variants, 24 – 0 mM for muPA variants) in a buffer of 10 mM HEPES, pH 7.4, 140 mM NaCl (HEPES-buffered saline, HBS), with 0.1% bovine serum albumin (BSA), was incubated 2 min at 37°C, prior to the addition of a fixed concentration of each protease (approximaterly 2 nM final concentration). The initial reaction velocities (V i), monitored as the changes in absorbance at 405 nm, were plotted against the initial substrate concentration ([S]) and non-linear regression analysis was used to determine the K M according to equation 1: […]
(§3) The K M values for hydrolysis of S-2444 by the uPA variants employed in the present study are listed in S2 Table.

muPA K41A = target: T2, muPA K41A (Mus musculus, UniProt P06869, K210A); assay: KM for S-2444 hydrolysis by muPA K41A; format: biochemical, murine
T2 construct: To ensure that the uPAs purified from the conditioned media were completely in the two-chain form, they were treated with plasmin; hexa-His (C); made in house; host or cells: HEK293 6E suspension cells
T2 sequence (P06869 180-433 K210A): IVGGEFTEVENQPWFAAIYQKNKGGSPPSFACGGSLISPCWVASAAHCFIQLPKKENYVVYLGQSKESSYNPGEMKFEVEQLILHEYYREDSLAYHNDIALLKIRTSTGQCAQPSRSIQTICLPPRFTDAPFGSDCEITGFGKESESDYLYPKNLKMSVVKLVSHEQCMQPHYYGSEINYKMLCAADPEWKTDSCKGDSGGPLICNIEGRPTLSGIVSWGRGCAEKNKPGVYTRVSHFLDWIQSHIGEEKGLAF
T2 sequence (P06869 21-178 partner limits assumed): as the sequence (P06869 21-178 partner limits assumed) above
Experimental: as §1, §2, §3

muPA Y99A = target: T3, muPA Y99A (Mus musculus, UniProt P06869, Y274A); assay: KM for S-2444 hydrolysis by muPA Y99A; format: biochemical, murine
T3 construct: To ensure that the uPAs purified from the conditioned media were completely in the two-chain form, they were treated with plasmin; hexa-His (C); made in house; host or cells: HEK293 6E suspension cells
T3 sequence (P06869 180-433 Y274A): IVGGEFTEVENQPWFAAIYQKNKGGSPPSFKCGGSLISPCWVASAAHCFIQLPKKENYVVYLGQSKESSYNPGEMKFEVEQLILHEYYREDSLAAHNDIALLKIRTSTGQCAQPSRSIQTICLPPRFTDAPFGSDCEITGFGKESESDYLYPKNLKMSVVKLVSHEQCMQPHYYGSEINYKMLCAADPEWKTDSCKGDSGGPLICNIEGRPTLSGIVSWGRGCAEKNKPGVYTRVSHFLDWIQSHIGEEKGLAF
T3 sequence (P06869 21-178 partner limits assumed): as the sequence (P06869 21-178 partner limits assumed) above
Experimental: as §1, §2, §3

muPA K143A = target: T4, muPA K143A (Mus musculus, UniProt P06869, K322A); assay: KM for S-2444 hydrolysis by muPA K143A; format: biochemical, murine
T4 construct: To ensure that the uPAs purified from the conditioned media were completely in the two-chain form, they were treated with plasmin; hexa-His (C); made in house; host or cells: HEK293 6E suspension cells
T4 sequence (P06869 180-433 K322A): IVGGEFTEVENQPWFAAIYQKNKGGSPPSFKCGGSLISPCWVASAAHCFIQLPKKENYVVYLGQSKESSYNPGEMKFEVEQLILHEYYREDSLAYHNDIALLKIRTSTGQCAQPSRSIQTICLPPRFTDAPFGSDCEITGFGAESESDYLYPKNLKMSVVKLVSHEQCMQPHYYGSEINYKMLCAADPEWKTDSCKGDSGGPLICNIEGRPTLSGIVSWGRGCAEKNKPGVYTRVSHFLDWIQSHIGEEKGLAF
T4 sequence (P06869 21-178 partner limits assumed): as the sequence (P06869 21-178 partner limits assumed) above
Experimental: as §1, §2, §3

muPA S190A = target: T5, muPA S190A (Mus musculus, UniProt P06869, S373A); assay: KM for S-2444 hydrolysis by muPA S190A; format: biochemical, murine
T5 construct: To ensure that the uPAs purified from the conditioned media were completely in the two-chain form, they were treated with plasmin; hexa-His (C); made in house; host or cells: HEK293 6E suspension cells
T5 sequence (P06869 180-433 S373A): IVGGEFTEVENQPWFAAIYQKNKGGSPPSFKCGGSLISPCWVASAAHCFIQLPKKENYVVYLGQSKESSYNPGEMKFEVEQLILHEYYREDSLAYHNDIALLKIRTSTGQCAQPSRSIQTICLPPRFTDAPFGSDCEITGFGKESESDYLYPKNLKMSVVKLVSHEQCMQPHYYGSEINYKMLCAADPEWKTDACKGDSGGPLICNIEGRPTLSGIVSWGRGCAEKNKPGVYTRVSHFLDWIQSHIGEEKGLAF
T5 sequence (P06869 21-178 partner limits assumed): as the sequence (P06869 21-178 partner limits assumed) above
Experimental: as §1, §2, §3

muPA V213T = target: T6, muPA V213T (Mus musculus, UniProt P06869, V396T); assay: KM for S-2444 hydrolysis by muPA V213T; format: biochemical, murine
T6 construct: To ensure that the uPAs purified from the conditioned media were completely in the two-chain form, they were treated with plasmin; hexa-His (C); made in house; host or cells: HEK293 6E suspension cells
T6 sequence (P06869 180-433 V396T): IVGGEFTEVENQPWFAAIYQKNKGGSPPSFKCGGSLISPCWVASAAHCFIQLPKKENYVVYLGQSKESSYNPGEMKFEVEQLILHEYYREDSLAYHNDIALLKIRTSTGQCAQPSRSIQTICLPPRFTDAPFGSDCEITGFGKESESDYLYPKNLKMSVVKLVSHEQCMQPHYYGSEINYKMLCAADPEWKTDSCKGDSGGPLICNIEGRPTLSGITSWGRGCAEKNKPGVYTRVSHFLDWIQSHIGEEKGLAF
T6 sequence (P06869 21-178 partner limits assumed): as the sequence (P06869 21-178 partner limits assumed) above
Experimental: as §1, §2, §3

huPA wt = target: T7, huPA wt (Homo sapiens, UniProt P00749); assay: KM for S-2444 hydrolysis by huPA wt; format: biochemical
T7 construct: To ensure that the uPAs purified from the conditioned media were completely in the two-chain form, they were treated with plasmin; hexa-His (C); made in house; host or cells: HEK293 6E suspension cells
Experimental: as §1, §2, §3

huPA-H99Y = target: T8, huPA-H99Y (Homo sapiens, UniProt P00749, H272Y); assay: KM for S-2444 hydrolysis by huPA-H99Y; format: biochemical
T8 construct: To ensure that the uPAs purified from the conditioned media were completely in the two-chain form, they were treated with plasmin; hexa-His (C); made in house; host or cells: HEK293 6E suspension cells
Experimental: as §1, §2, §3

huPA-H99Y R35A = target: T9, huPA-H99Y R35A (Homo sapiens, UniProt P00749, H272Y/R198A); assay: KM for S-2444 hydrolysis by huPA-H99Y R35A; format: biochemical
T9 construct: To ensure that the uPAs purified from the conditioned media were completely in the two-chain form, they were treated with plasmin; hexa-His (C); made in house; host or cells: HEK293 6E suspension cells
Experimental: as §1, §2, §3

huPA-H99Y V41A = target: T10, huPA-H99Y V41A (Homo sapiens, UniProt P00749, H272Y/V208A); assay: KM for S-2444 hydrolysis by huPA-H99Y V41A; format: biochemical
T10 construct: To ensure that the uPAs purified from the conditioned media were completely in the two-chain form, they were treated with plasmin; hexa-His (C); made in house; host or cells: HEK293 6E suspension cells
Experimental: as §1, §2, §3

huPA-H99Y K143A = target: T11, huPA-H99Y K143A (Homo sapiens, UniProt P00749, H272Y/K320A); assay: KM for S-2444 hydrolysis by huPA-H99Y K143A; format: biochemical
T11 construct: To ensure that the uPAs purified from the conditioned media were completely in the two-chain form, they were treated with plasmin; hexa-His (C); made in house; host or cells: HEK293 6E suspension cells
Experimental: as §1, §2, §3

huPA-H99Y Q192A = huPA-H99Y Q192A (Homo sapiens, UniProt P00749, H272Y/Q373A); assay: KM for S-2444 hydrolysis by huPA-H99Y Q192A; format: biochemical; design: hexa-His (C); made in house; host or cells: HEK293 6E suspension cells
Experimental: as §1, §2, §3

Km (muPA wt): 2400 ± 200 µM | Km (muPA K41A): 2500 ± 200 µM | Km (muPA Y99A): 3600 ± 300 µM | Km (muPA K143A): 1000 ± 400 µM | Km (muPA S190A): 10800 ± 1000 µM | Km (muPA V213T): 868 ± 350 µM | Km (huPA wt): 87 ± 0.3 µM | Km (huPA-H99Y): 610 ± 110 µM | Km (huPA-H99Y R35A): 517 ± 156 µM | Km (huPA-H99Y V41A): 742 ± 73 µM | Km (huPA-H99Y K143A): 500 ± 41 µM | Km (huPA-H99Y Q192A): 904 ± 178 µM
SMILES: NC(N)=NCCC[C@H](NC(=O)CNC(=O)[C@@H]1CCC(=O)N1)C(=O)Nc1ccc([N+](=O)[O-])cc1 [S-2444, pyro-Glu-Gly-Arg-p-nitroanilide] ([pGlu]-Gly-Arg-pNA)
